{
  "source": "ChEMBL document CHEMBL4619712",
  "about": "“Double-component diazeniumdiolate derivatives as anti-cancer agents” (Bioorg Med Chem, 2020)",
  "key": {"[1]": {"system": "CCRF-CEM", "experiment": "Cell cycle arrest in human CCRF-CEM cells assessed as accumulation of cells at G1/G0 phase at 8 uM after 48 hrs by RNAse/propidium iodide staining based flow cytometry (reference value: 28.3%)", "format": "functional"}, "[2]": {"system": "CCRF-CEM", "experiment": "Induction of apoptosis in human CCRF-CEM cells assessed as viable cells at 8 uM after 24 hrs by Annexin V/propidium iodide staining based flow cytometry (reference value: 90.4%)", "format": "functional", "conditions": "read-out: Activity"}, "[3]": {"system": "CCRF-CEM", "experiment": "Induction of apoptosis in human CCRF-CEM cells assessed as late apoptotic cells at 4 uM after 72 hrs by Annexin V/propidium iodide staining based flow cytometry (reference value: 8.60%)", "format": "functional"}, "[4]": {"system": "CCRF-CEM", "experiment": "Induction of apoptosis in human CCRF-CEM cells assessed as late apoptotic cells at 8 uM after 72 hrs by Annexin V/propidium iodide staining based flow cytometry (reference value: 8.60%)", "format": "functional"}, "[5]": {"system": "CCRF-CEM", "experiment": "Induction of apoptosis in human CCRF-CEM cells at 8 uM by Annexin V-FITC/propidium iodide staining based flow cytometry", "format": "functional, cell-based", "conditions": "TDE = time-dependent effect"}, "[6]": {"system": "CCRF-CEM", "experiment": "(§1) Induction of apoptosis in human CCRF-CEM cells assessed as early apoptotic cells at 8 uM after 72 hrs by Annexin V/propidium iodide staining based flow cytometry (reference value: 0.87%)", "format": "functional"}, "[7]": {"system": "CCRF-CEM", "experiment": "Induction of apoptosis in human CCRF-CEM cells assessed as viable cells at 8 uM after 48 hrs by Annexin V/propidium iodide staining based flow cytometry (reference value: 90.4%)", "format": "functional", "conditions": "read-out: Activity"}, "[8]": {"system": "CCRF-CEM", "experiment": "Induction of apoptosis in human CCRF-CEM cells assessed as early apoptotic cells at 8 uM after 48 hrs by Annexin V/propidium iodide staining based flow cytometry (reference value: 0.87%)", "format": "functional"}, "[9]": {"system": "CCRF-CEM", "experiment": "Induction of apoptosis in human CCRF-CEM cells assessed as early apoptotic cells at 8 uM after 8 hrs by Annexin V/propidium iodide staining based flow cytometry (reference value: 0.87%)", "format": "functional"}, "[10]": {"system": "CCRF-CEM", "experiment": "Induction of apoptosis in human CCRF-CEM cells assessed as necrotic cells at 4 uM after 72 hrs by Annexin V/propidium iodide staining based flow cytometry (reference value: 0.11%)", "format": "functional"}, "[11]": {"target": "T1, MAP kinase p38 (Homo sapiens) (UniProt O15264+Q15759+Q16539+P53778)", "experiment": "Activation of p38 in human CCRF-CEM cells assessed as increase in p38 level at 8 uM incubated for 1 to 6 hrs by Western blot analysis", "format": "cell-based"}, "[12]": {"system": "CCRF-CEM", "experiment": "Cell cycle arrest in human CCRF-CEM cells assessed as accumulation of cells at G2/M phase at 8 uM after 72 hrs by RNAse/propidium iodide staining based flow cytometry (reference value: 25.6%)", "format": "functional"}, "[13]": {"system": "CCRF-CEM", "experiment": "as §1", "format": "functional", "remark": "listed apart in the source"}, "[14]": {"system": "CCRF-CEM", "experiment": "Induction of apoptosis in human CCRF-CEM cells assessed as late apoptotic cells at 8 uM after 24 hrs by Annexin V/propidium iodide staining based flow cytometry (reference value: 8.60%)", "format": "functional"}, "[15]": {"system": "CCRF-CEM", "experiment": "Induction of apoptosis in human CCRF-CEM cells assessed as viable cells at 16 uM after 72 hrs by Annexin V/propidium iodide staining based flow cytometry (reference value: 90.4%)", "format": "functional", "conditions": "read-out: Activity"}, "[16]": {"system": "CCRF-CEM", "experiment": "Cell cycle arrest in human CCRF-CEM cells assessed as accumulation of cells at G2/M phase at 8 uM after 24 hrs by RNAse/propidium iodide staining based flow cytometry (reference value: 25.6%)", "format": "functional"}, "[17]": {"system": "CCRF-CEM", "experiment": "Induction of apoptosis in human CCRF-CEM cells assessed as necrotic cells at 2 uM after 72 hrs by Annexin V/propidium iodide staining based flow cytometry (reference value: 0.11%)", "format": "functional"}, "[18]": {"system": "CCRF-CEM", "experiment": "Induction of apoptosis in human CCRF-CEM cells assessed as increase in Bax level at 8 uM by Western blot analysis", "format": "functional, cell-based", "conditions": "TDE = time-dependent effect"}, "[19]": {"system": "CCRF-CEM", "experiment": "Induction of apoptosis in human CCRF-CEM cells assessed as necrotic cells at 16 uM after 72 hrs by Annexin V/propidium iodide staining based flow cytometry (reference value: 0.11%)", "format": "functional"}, "[20]": {"target": "T1, MAP kinase p38 (Homo sapiens)", "experiment": "Activation of p38 in human CCRF-CEM cells assessed as increase in phosphorylated p38 level at 8 uM incubated for 1 to 6 hrs by Western blot analysis", "format": "cell-based"}, "[21]": {"system": "CCRF-CEM", "experiment": "Induction of apoptosis in human CCRF-CEM cells assessed as viable cells at 8 uM after 72 hrs by Annexin V/propidium iodide staining based flow cytometry (reference value: 90.4%)", "format": "functional", "conditions": "read-out: Activity"}, "[22]": {"system": "CCRF-CEM", "experiment": "Induction of apoptosis in human CCRF-CEM cells assessed as late apoptotic cells at 8 uM after 8 hrs by Annexin V/propidium iodide staining based flow cytometry (reference value: 8.60%)", "format": "functional"}, "[23]": {"target": "T2, c-Jun N-terminal kinase, JNK (Homo sapiens) (UniProt P45983+P53779+P45984)", "experiment": "Activation of JNK in human CCRF-CEM cells assessed as increase in JNK level at 8 uM incubated for 1 to 6 hrs by Western blot analysis", "format": "cell-based"}, "[24]": {"target": "T2, c-Jun N-terminal kinase, JNK (Homo sapiens)", "experiment": "Activation of JNK in human CCRF-CEM cells assessed as increase in phosphorylated JNK level at 8 uM incubated for 1 to 6 hrs by Western blot analysis", "format": "cell-based"}, "[25]": {"system": "CCRF-CEM", "experiment": "Cell cycle arrest in human CCRF-CEM cells assessed as accumulation of cells at G1/G0 phase at 8 uM after 24 hrs by RNAse/propidium iodide staining based flow cytometry (reference value: 28.3%)", "format": "functional"}, "[26]": {"system": "CCRF-CEM", "experiment": "Induction of apoptosis in human CCRF-CEM cells assessed as decrease in Bcl-2 level after 72 hrs by western blot analysis", "format": "functional, cell-based"}, "[27]": {"system": "CCRF-CEM", "experiment": "Cell cycle arrest in human CCRF-CEM cells assessed as accumulation of cells at sub G1 phase at 8 uM after 48 hrs by RNAse/propidium iodide staining based flow cytometry (reference value: 0.1%)", "format": "functional"}},
  "note": "Calls of active or inactive are those of the source. The calls are words filed in the database; no cut-off is given here.",
  "data": [
    {"smiles": "O=[N+]([O-])c1ccc(O/N=[N+](\\[O-])N2CCC(CN3CCN(/[N+]([O-])=N/Oc4ccc([N+](=O)[O-])cc4[N+](=O)[O-])CC3)CC2)c([N+](=O)[O-])c1", "values": [
      {"measurement": "Activity", "setting": "[1]", "result": 28.9, "unit": "%"},
      {"measurement": "viability at 8 µM", "setting": "[2]", "result": 65, "unit": "%"},
      {"measurement": "Activity", "setting": "[3]", "result": 10.6, "unit": "%"},
      {"measurement": "Activity", "setting": "[4]", "result": 56.2, "unit": "%"},
      {"measurement": "Activity", "setting": "[5]", "result": "Tde"},
      {"measurement": "Activity", "setting": "[6]", "result": 8.93, "unit": "%"},
      {"measurement": "viability at 8 µM", "setting": "[7]", "result": 43.6, "unit": "%"},
      {"measurement": "Activity", "setting": "[8]", "result": 6.51, "unit": "%"},
      {"measurement": "Activity", "setting": "[9]", "result": 13.8, "unit": "%"},
      {"measurement": "Activity", "setting": "[10]", "result": 0.028, "unit": "%"},
      {"measurement": "Activity", "setting": "[11]", "result": "Active"},
      {"measurement": "Activity", "setting": "[12]", "result": 63.7, "unit": "%"},
      {"measurement": "Activity", "setting": "[13]", "result": 4.93, "unit": "%"},
      {"measurement": "Activity", "setting": "[14]", "result": 27.9, "unit": "%"},
      {"measurement": "viability at 16 µM", "setting": "[15]", "result": 0.63, "unit": "%"},
      {"measurement": "Activity", "setting": "[16]", "result": 45.7, "unit": "%"},
      {"measurement": "Activity", "setting": "[17]", "result": 0.015, "unit": "%"},
      {"measurement": "Activity", "setting": "[18]", "result": "Tde"},
      {"measurement": "Activity", "setting": "[19]", "result": 0.08, "unit": "%"},
      {"measurement": "Activity", "setting": "[20]", "result": "Active"},
      {"measurement": "viability at 8 µM", "setting": "[21]", "result": 34.8, "unit": "%"},
      {"measurement": "Activity", "setting": "[22]", "result": 24.3, "unit": "%"},
      {"measurement": "Activity", "setting": "[23]", "result": "Active"},
      {"measurement": "Activity", "setting": "[24]", "result": "Active"},
      {"measurement": "Activity", "setting": "[25]", "result": 24.5, "unit": "%"},
      {"measurement": "Activity", "setting": "[26]", "result": "Dose-dependent effect"},
      {"measurement": "Activity", "setting": "[27]", "result": 8.4, "unit": "%"}
    ]}
  ]
}
